Assay results from patent US20190337971A1, “PANTETHEINE DERIVATIVES FOR THE TREATMENT OF NEUROLOGIC DISORDERS” (Retrophin, Inc., priority 2016, published 2019).

Columns and labels:
[1] = Stability of compounds in human hepatocytes; assay type: in vitro ADME; conditions: cryopreserved human hepatocytes in suspension, 37° C., 0-240 min
Method: (§1) Stability in hepatocytes for select compounds disclosed in the application was evaluated in two species (mouse and human) according to the following procedure. Compounds and positive control samples were dissolved in 100% DMSO at 5 mM. Cryopreserved hepatocytes were thawed and resuspended in Hepatocyte Basal Medium (HBM-Lonza CC-3199) supplemented with CC-4182 (complete hepatocyte culture medium). Test compounds were diluted into cell suspension (1 million cells/ml) from the stock solutions to have a test compound concentration of 5 μM (0.1% DMSO). Incubation was performed in 24-well plates, at 37° C. in a DUBNOFF water bath, under low shaking. Each compound was tested at 6 time points, in duplicates (0, 15, 30, 60, 120, and 240 min). At each time point, an aliquot of 120 μl was taken and transferred to a 96-well deep plate. The reaction was stopped with the addition of one volume of 100% acetonitrile plus 0.1% formic acid and the appropriate internal standard. Samples then were centrifuged at 1100×g for 30 min at +4° C. and supernatants were transferred to a new 96-deepwell plate. Samples were evaporated under N2 and reconstituted in H2O/ACN 0.1% formic Acid (98:2). Analysis was performed without a calibration curve (Acquity UPLC-Waters; Sciex API4000). Time 0 was obtained adding acetonitrile before addition of the test compound. Stability was determined based on analysis of disappearance of the compounds as a function of incubation time. Quantification of test compounds was measured as a peak area relative to an internal standard. The elimination constant, k, is calculated by plotting mean disappearance values on a semi-logarithmic scale and fitting with a best fit linear regression. The half-life (t1/2) expressed in hours was derived using Equation 1:
(§2) t1/2=ln 2/(−k). Equation 1: […]

[2] = Stability in human plasma; assay type: in vitro ADME; conditions: 37° C., up to 60 min
Method: The stability of selected compounds in human plasma was evaluated according to the following protocol. Compounds and positive control samples were dissolved in 100% DMSO at 3 mM. To investigate the stability of the test compounds in plasma, samples were made by diluting test compounds into plasma from the stock solutions to obtain a test compound concentration of 3 μM (0.1% DMSO). Before addition of a test compound, 990 μl of plasma were preincubated at 37° C. for 5 min in eppendorf. After addition of a test compound, 70 μl for each time point were transferred to a 96-deepwell plate, previously warmed at 37° C. in a DUBNOFF water bath. Each compound was tested at five time points, in duplicate (10, 20, 30, 40 and 60 min). At each time point, an aliquot of 50 μl was taken and transferred to a new 96-deepwell plate, and the reaction was stopped with 200 μl of 100% acetonitrile containing 0.1% formic acid and the appropriate internal standard. Then samples were centrifuged at 1100×g for 30 min at +4° C. and supernatants were transferred to a new 96-deepwell plate. Samples were evaporated under N2 and reconstituted in H2O/ACN 0.1% formic Acid (98:2). Analysis was performed without a calibration curve (Acquity UPLC-Waters; SciexAPI4000). Time 0 was obtained by adding acetonitrile before addition of the test compound.
(§3) Stability was determined based on analysis of disappearance of the compounds as a function of incubation time. Quantification of test compounds was measured as a peak area relative to an internal standard. The elimination constant k and half-life (t1/2) were determined as described above in Example 7.

[3] = Stability of compounds in mouse hepatocytes; assay type: in vitro ADME; conditions: cryopreserved mouse hepatocytes in suspension, 37° C., 0-240 min
Method: as §1, §2

[4] = Stability in human whole blood; assay type: in vitro ADME; conditions: 37° C., up to 60 min
Method: The stability of selected compounds in human whole blood was evaluated according to the following protocol. Compounds and positive control samples were dissolved in 100% DMSO at 3 mM (stock solution). To investigate the stability of the test compounds in whole blood, a 200 μM working solution (WS) in water has been prepared by adding 66.66 μl of each 3 mM stock solution to 933.34 μl of water (6.66% DMSO content). After pre-incubation of the whole blood at 37° C. for 5 min in an eppendorf, 10.5 μl of each working solution were spiked into 689.5 μl of heated blood. The obtained 3 μM solution in blood (0.1% DMSO content) was quickly stirred and 100 μl for each time point were transferred to an eppendorf. Each compound was tested in duplicate at five time points (10, 20, 30, 40 and 60 min). At each time point, the reaction was stopped by quenching the spiked blood (100 μl) with 400 μl of 100% acetonitrile containing 0.1% formic acid. Then samples were centrifuged at 15600 rpm for 15 min at +4° C. and 200 μl of supernatant were transferred to a 96-deepwell plate. Samples were evaporated under N2 and reconstituted in H2O/ACN 0.1% formic Acid (98/2 v/v) containing the appropriate internal standard. Analysis was performed without a calibration curve by using an Acquity-UPLC (Waters) coupled to a triple quadrupole mass spectrometer (SciexAPI4000). Time point 0 was obtained by adding 3 μL of each 200 μM working solution to 997 μL of the supernatant obtaining after centrifugation (15600 rpm for 15 min at +4° C.) of the blank matrix quenched with acetonitrile containing 0.1% formic acid.
as §3

PANK2−/− IMR32 cells = test: Coenzyme A assay in PANK2 silenced cells (LC-MS quantification of free CoA); assay type: cell-based, human; conditions: Homo sapiens, IMR-32; compound concentration 50 uM; fold increase in CoA levels relative to controls; treated twice, 24 h + 24 h
Method: A human neuroblastoma IMR32 cell line (ATCC) with stably PANK2 silencing was obtained by lentiviral-delivered small hairpin RNA and cultured in MEM (Invitrogen) supplemented with 10% fetal bovine serum, 2 mM glutamine, 1% penicillin-streptomycin, 1 mM sodium pyruvate, 1 mM non-essential amino acids, and 1.5 g/l sodium bicarbonate.
A non-silencing shRNA construct (scrambled shRNA) and an empty vector expressing GFP alone were used as negative controls. The GFP tag subcloned into the lentiviral vectors was used to monitor the transfection efficiency.
Three days after transduction medium was removed and replaced with fresh medium containing […] puromycin. […] The level of PANK2 expression in selected clones was assessed by Western Blot analysis.
To quantify CoA, PANK2−/− IMR32 cells were plated on 12-well culture plates (Corning) at a density of 0.2×10^6 cells per well. […] Controls with medium containing 0.1% DMSO without test compounds were also included in each plate. […] Before LC-MS analysis of CoA levels, cells were harvested, counted, and collected in a 15 ml falcon tube and centrifuged at 200×g for 5 min at 4° C. Supernatant was removed and cell pellet was washed in 10 ml of ice-cold PBS. To further confirm that the numbers of cells in each sample were equivalent, an equal fraction of pellet was collected from each sample and subjected to protein determination analysis. After centrifugation and supernatant removal, the cell pellet was rapidly frozen in Liquid Nitrogen and stored at −80° C. until analysis.
Intracellular CoA levels were calculated considering an intracellular volume of 1 million cells=2 μl.
The 1*10^6 cellular pellet was extracted with 120 μl of aqueous 20% TFA.
100 μL samples of supernatant were dried under N2 at 20° C. in the dark.
Samples were re-dissolved in 100 μl of 10 mM NH4^+ AcO^− buffer pH 5.1+IS (Dextrorphan 50 ng/ml), stirred for 2 min, sonicated in ultrasonic bath for 1 min, then stirred again for 1 min, and injected into LC-MS.
LC-MS/MS was performed using an Agilent HPLC (1100 Series, USA). The LC system was interfaced with an API-4000 Q-Trap triple quadrupole mass spectrometer (AB Sciex, Toronto, Canada) equipped with a TurboIonSpray ionization source operating in positive ion mode. Analyst™ software version 1.6 (AB Sciex, Toronto, Canada) was used for data acquisition and processing. CoA was separated using a Luna C18 column (2.0×50 mm; 5 μm particle size), column at 25° C. and flow rate of 0.2 ml/min. Injection volume was 15 μl. The mobile phases consisted of water containing 10 mM ammonium acetate pH 7 (mobile phase A) and MeCN-2-propanol 9:1 (mobile phase B).
Results are expressed as fold increase in CoA levels relative to controls (using LC-MS quantification of free CoA).

[5] = Diastereoisomer A (upfield shift in 31P NMR), read-out: t1/2 (h) Human Hepatocytes Diastereoisomer A (converted)
[6] = Diastereoisomer A (upfield shift in 31P NMR), read-out: t1/2 (h) Human Plasma Diastereoisomer A (converted)
[7] = Diastereoisomer A (upfield shift in 31P NMR), read-out: t1/2 (h) Mouse Hepatocytes Diastereoisomer A (converted)
[8] = Diastereoisomer A (upfield shift in 31P NMR), read-out: t1/2 (h) Human Whole Blood Diastereoisomer A (converted)
[9] = Diastereoisomer B, read-out: t1/2 (h) Human Whole Blood Diastereoisomer B (converted)

SMILES	half-life at 5 μM [1, 5] [h]	half-life at 3 μM [2, 6] [h]	half-life at 5 μM [3, 7] [h]	half-life at 5 μM ([1]; Diastereoisomer B, read-out: t1/2 (h) Human Hepatocytes Diastereoisomer B (converted)) [h]	half-life at 3 μM [4, 8] [h]	half-life at 3 μM [4, 9] [h]	half-life at 5 μM ([3]; Diastereoisomer B, read-out: t1/2 (h) Mouse Hepatocytes Diastereoisomer B) [h]	fold induction at 50 µM (PANK2−/− IMR32 cells)	half-life at 3 μM ([2]; Diastereoisomer B, read-out: t1/2 (h) Human Plasma Diastereoisomer B (converted)) [h]
CC(=O)SCCNC(=O)CCNC(=O)[C@@H]1O[P@@](=O)(OCOC(=O)C(C)(C)C)OCC1(C)C [R1002, (((2S,4R)-4-((3-((2-(acetylthio)ethyl)amino)-3-oxopropyl)carbamoyl)-5,5-dimethyl-2-oxido-1,3,2-dioxaphosphinan-2-yl)oxy)methyl pivalate]	< 0.25	0.72	< 0.25						
CC(=O)SCCNC(=O)CCNC(=O)[C@@H]1OP(=O)(OCOC(=O)NCCOC(=O)C(C)(C)C)OCC1(C)C (stereo partly drawn) [R1008, 2-((((((4R)-4-((3-((2-(acetylthio)ethyl)amino)-3-oxopropyl)carbamoyl)-5,5-dimethyl-2-oxido-1,3,2-dioxaphosphinan-2-yl)oxy)methoxy)carbonyl)amino)ethyl pivalate]	0.29		< 0.25	< 0.25	0.5	0.23	< 0.25	41.2	
CC(=O)SCCNC(=O)CCNC(=O)[C@@H]1OP(=O)(N[C@@H](C)C(=O)OCCc2ccccc2)OCC1(C)C (stereo partly drawn) [R1001, phenethyl ((4R)-4-((3-((2-(acetylthio)ethyl)amino)-3-oxopropyl)carbamoyl)-5,5-dimethyl-2-oxido-1,3,2-dioxaphosphinan-2-yl)-L-alaninate]		> 1						3.5	0.36
CC(=O)SCCNC(=O)CCNC(=O)[C@@H]1OP(=O)(OCOC(=O)NCCSC(=O)C(C)(C)C)OCC1(C)C (stereo partly drawn) [R1023, S-(2-((((((4R)-4-((3-((2-(acetylthio)ethyl)amino)-3-oxopropyl)carbamoyl)-5,5-dimethyl-2-oxido-1,3,2-dioxaphosphinan-2-yl)oxy)methoxy)carbonyl)amino)ethyl) 2,2-dimethylpropanethioate]					0.31	0.17		17	
